Test systems include HCT-116; TK-10; EKVX; M14; BT-549; SK-MEL-28; HCC 2998; MOLT-4; OVCAR-3; SK-OV-3; COLO 205; SR; 786-0; SN12C; NCI-H522; Hs-578T; CAKI-1; U-251; Malme-3M; HT-29.
Holding throughout (experiment): NCI anticancer screen, dose series, 48 h

The record followed here is ChEMBL document CHEMBL1201862, “PubChem BioAssay data set” (2004).

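These data come from cells grown in 96-well plates and exposed to compound for 48 hours at five concentrations. GI50 marks 50% less growth.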 Active and inactive are the calls of the source. Cut-off read from the data, not from the text of the source: active = GI50 up to about 1.1 µM and inactive = higher.

For `N#Cc1sc2c(c1OC(=O)c1ccco1)c(=O)n(-c1ccccc1)c(=S)n2-c1ccccc1`, the GI50 in the assay on HCT-116 is 19.2 µM (inactive); in the assay with TK-10, 49.8 µM (inactive); in the assay on EKVX, 52.6 µM (inactive); with M14 it was 25.5 µM (inactive); in the assay with BT-549, 37.6 µM (inactive); with SK-MEL-28, 35 µM (inactive). For the same molecule, the GI50 with HCC 2998 was 55.7 µM (inactive); in the assay with MOLT-4 it was 13.8 µM (inactive); in the assay with OVCAR-3 it was 24.8 µM (inactive); in the assay on SK-OV-3 it was 27.7 µM (inactive); with COLO 205 it was 22.8 µM (inactive); in the assay on SR it was > 10 µM (inactive). For the same molecule, the GI50 in the assay with 786-0 is 31.1 µM (inactive); with SN12C, 27.8 µM (inactive); with NCI-H522 it was 27.4 µM (inactive); in the assay on Hs-578T, 57.4 µM (inactive); with CAKI-1 it was 39.7 µM (inactive); in the assay with U-251, 25.3 µM (inactive). Besides, the GI50 is 22.2 µM (inactive) in the assay on Malme-3M and 32.9 µM (inactive) with HT-29.
For the molecule `NCCNC(=O)CN(CC(=O)O)C1CCCCC1N(CC(=O)O)CC(=O)O` (stereo not given), the GI50 with HCT-116, with TK-10, with EKVX, in the assay on M14, with BT-549 and with SK-MEL-28 was > 100 µM (inactive) in each case. The GI50 in the assay on HCC 2998, in the assay on MOLT-4, in the assay with OVCAR-3, in the assay with SK-OV-3, with COLO 205 and with SR was > 100 µM (inactive) in each case. Further, the GI50 with 786-0 is > 100 µM (inactive); with SN12C, > 100 µM (inactive); with NCI-H522, > 100 µM (inactive); in the assay with Hs-578T, 56 µM (inactive); in the assay with CAKI-1, > 100 µM (inactive); in the assay on U-251 it was > 100 µM (inactive). Also, the GI50 with Malme-3M and in the assay with HT-29 was > 100 µM (inactive) each time.
In the case of `COc1cc(NS(C)(=O)=O)ccc1NCc1c[nH]c2ccc3ncccc3c12`, the GI50 is 21.2 µM (inactive) in the assay with HCT-116; 28 µM (inactive) in the assay on TK-10; 20.2 µM (inactive) in the assay with EKVX; 16.3 µM (inactive) in the assay with M14; 18.9 µM (inactive) in the assay with BT-549; 23.1 µM (inactive) with SK-MEL-28. Also, the GI50 was 18.9 µM (inactive) in the assay with HCC 2998; 5.83 µM (inactive) with MOLT-4; 23.2 µM (inactive) with OVCAR-3; 16.5 µM (inactive) in the assay with SK-OV-3; 15.6 µM (inactive) in the assay with COLO 205; 2.75 µM (inactive) in the assay on SR. Moreover, the GI50 in the assay with 786-0 is 15.6 µM (inactive); in the assay on SN12C it was 20.6 µM (inactive); in the assay on NCI-H522 it was 14.2 µM (inactive); in the assay on Hs-578T, 19.7 µM (inactive); in the assay with CAKI-1, 22.4 µM (inactive); with U-251, 27.5 µM (inactive). Also, the GI50 was 20.5 µM (inactive) in the assay with Malme-3M and 23.2 µM (inactive) in the assay on HT-29.
With `CCOC(=O)C12CCC(c3c(C)cccc3C)(O1)C(C(=O)OC)=C2C(=O)OC` (stereo not given), the GI50 was 2.14 µM (inactive) in the assay with HCT-116; > 10 µM (inactive) in the assay on TK-10; > 7.18 µM (inactive) in the assay on EKVX; 2.69 µM (inactive) with M14; 4 µM (inactive) with BT-549; > 7.5 µM (inactive) with SK-MEL-28. Further, the GI50 in the assay on HCC 2998 is 6.7 µM (inactive); in the assay with MOLT-4, 4.74 µM (inactive); in the assay with OVCAR-3 it was 0.889 µM (active); in the assay on SK-OV-3, 5.09 µM (inactive); with COLO 205, 1.87 µM (inactive); with SR it was 0.646 µM (active). In addition, the GI50 in the assay with 786-0 was 3.08 µM (inactive); with SN12C, > 6.75 µM (inactive); in the assay on NCI-H522, 5.38 µM (inactive); in the assay on Hs-578T, 3.52 µM (inactive); with CAKI-1, > 5.6 µM (inactive); with U-251 it was 3.76 µM (inactive). Also, the GI50 is 1.05 µM (active) in the assay with Malme-3M and 0.748 µM (active) in the assay with HT-29.
For `N#C/C(=C\c1ccc2ccccc2c1)C(=O)c1ccccc1`, the GI50 in the assay on HCT-116 is > 61.4 µM (inactive); in the assay with TK-10, > 100 µM (inactive); with EKVX it was > 100 µM (inactive); with M14, > 64.9 µM (inactive); in the assay with BT-549, 52.2 µM (inactive); in the assay with SK-MEL-28 it was > 47 µM (inactive). The GI50 was > 100 µM (inactive) in the assay on HCC 2998; 23.5 µM (inactive) in the assay on MOLT-4; > 65.2 µM (inactive) with OVCAR-3; > 46.8 µM (inactive) with SK-OV-3; > 100 µM (inactive) with COLO 205; 37.8 µM (inactive) in the assay on SR. In addition, the GI50 in the assay on 786-0 was > 61.8 µM (inactive); with SN12C it was > 66.5 µM (inactive); in the assay on NCI-H522 it was > 92 µM (inactive); with Hs-578T, 22.2 µM (inactive); in the assay with CAKI-1 it was > 100 µM (inactive); in the assay with U-251, 21.9 µM (inactive). For the same molecule, the GI50 is > 95.7 µM (inactive) with Malme-3M and > 67.3 µM (inactive) with HT-29.
